Biological target: T1, ATPBD of A. fulgidus CopB (Strep-tagged) (Archaeoglobus fulgidus, UniProt O30085)
T1 sequence (O30085 372-636): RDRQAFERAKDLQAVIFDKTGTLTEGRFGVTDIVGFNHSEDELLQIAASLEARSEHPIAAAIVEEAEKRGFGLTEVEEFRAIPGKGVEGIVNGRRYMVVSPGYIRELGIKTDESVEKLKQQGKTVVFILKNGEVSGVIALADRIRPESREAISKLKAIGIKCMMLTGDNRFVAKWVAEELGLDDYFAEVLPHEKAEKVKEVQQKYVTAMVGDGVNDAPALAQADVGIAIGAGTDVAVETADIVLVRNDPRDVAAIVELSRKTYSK
Assay: biochemical

Nc1ncnc2c1ncn2[C@@H]1O[C@H](COP(=O)(O)OP(=O)(O)OP(=O)(O)O)[C@@H](O)[C@H]1O [ATP]
Kd: 34 ± 2 µM

— paper PMC3475447 (Bioscience Reports, 2012)
